# Laboratory results as given in PubChem BioAssay (NCI).
#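 Briefly, cells in 96-well plates were exposed to five compound concentrations for 48 h, and endpoints were estimated by linear interpolation. GI50 = concentration required for 50% inhibition of growth. Definition used: TGI = concentration required for complete inhibition of growth.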
# Key:
# Test in all cases: NCI anticancer screen, dose series, 48 h
# [1] = system: HL-60(TB) leukemia
# [2] = system: SN12C renal
# [3] = system: A549 NSCLC
# [4] = system: RPMI-8226 leukemia
# [5] = system: ACHN renal
# [6] = system: MDA-MB-435
# [7] = system: PC-3 prostate
# [8] = system: A498 renal
# [9] = system: T-47D breast
# [10] = system: HOP-62 NSCLC
# [11] = system: OVCAR-3 ovarian
# [12] = system: SK-MEL-2 melanoma
# [13] = system: SW-620 colon
# [14] = system: HOP-92 NSCLC
# [15] = system: OVCAR-5 ovarian
# [16] = system: NCI-H522 lung
# [17] = system: HS 578T breast
# [18] = system: CAKI-1 renal
# [19] = system: NCI-H460 lung
# [20] = system: 786-0 renal
# [21] = system: MCF7 breast
# [22] = system: SK-MEL-28 melanoma
# [23] = system: HT29 colon
# [24] = system: NCI-H23 lung
# [25] = system: SF-268 CNS
# [26] = system: IGROV1 ovarian
# [27] = system: COLO 205 colon
# [28] = system: SR leukemia
# [29] = system: MDA-MB-231 breast
# [30] = system: RXF 393 renal
# [31] = system: DU-145 prostate
# [32] = system: LOX IMVI melanoma
# [33] = system: OVCAR-8 ovarian
# [34] = system: TK-10 renal
# [35] = system: HCC-2998 colon
# [36] = system: HCT-116 colon
# [37] = system: SF-539 CNS
# [38] = system: CCRF-CEM leukemia
# [39] = system: K-562 leukemia
# [40] = system: NCI/ADR-RES ovarian
# [41] = system: UACC-257 melanoma
# [42] = system: SNB-19 CNS
# [43] = system: MALME-3M melanoma
# [44] = system: M14 melanoma
# [45] = system: BT-549 breast
# [46] = system: NCI-H226 lung
# [47] = system: SK-OV-3 ovarian
# [48] = system: SF-295 CNS
# [49] = system: KM12 colon
# [50] = system: HCT-15 colon
# [51] = system: OVCAR-4 ovarian
# [52] = system: SNB-75 CNS
# [53] = system: MOLT-4 leukemia
# [54] = system: U251 CNS
# [55] = system: UACC-62 melanoma
# [56] = system: SK-MEL-5 melanoma
# [57] = system: EKVX NSCLC
compound,measurement,setting,value
COc1ccc2c(c1)C(=O)c1c-2c(=O)n(CCCCCCC(=O)NO)c2ccccc12,GI50,[1],0.325 µM
same,TGI,[1],> 100 µM
same,GI50,[2],1.36 µM
same,TGI,[2],88.2 µM
same,GI50,[3],0.416 µM
same,TGI,[3],3.19 µM
same,GI50,[4],0.259 µM
same,TGI,[4],> 100 µM
same,GI50,[5],0.226 µM
same,TGI,[5],1.7 µM
same,GI50,[6],0.197 µM
same,TGI,[6],2.29 µM
same,GI50,[7],0.491 µM
same,TGI,[7],> 100 µM
same,GI50,[8],0.245 µM
same,TGI,[8],0.985 µM
same,GI50,[9],0.0948 µM
same,TGI,[9],0.526 µM
same,GI50,[10],0.0987 µM
same,TGI,[10],2.71 µM
same,GI50,[11],0.292 µM
same,TGI,[11],2.11 µM
same,GI50,[12],1.23 µM
same,TGI,[12],5.9 µM
same,GI50,[13],0.13 µM
same,TGI,[13],0.695 µM
same,GI50,[14],0.197 µM
same,TGI,[14],1.24 µM
same,GI50,[15],0.527 µM
same,TGI,[15],12.3 µM
same,GI50,[16],0.0822 µM
same,TGI,[16],1.17 µM
same,GI50,[17],0.16 µM
same,TGI,[17],4.47 µM
same,GI50,[18],0.72 µM
same,TGI,[18],3.72 µM
same,GI50,[19],0.269 µM
same,TGI,[19],> 100 µM
same,GI50,[20],1.32 µM
same,TGI,[20],11.5 µM
same,GI50,[21],0.226 µM
same,TGI,[21],10.2 µM
same,GI50,[22],0.478 µM
same,TGI,[22],3.12 µM
same,GI50,[23],0.282 µM
same,TGI,[23],2.75 µM
same,GI50,[24],0.296 µM
same,TGI,[24],1.81 µM
same,GI50,[25],1.06 µM
same,TGI,[25],9.8 µM
same,GI50,[26],0.732 µM
same,TGI,[26],12.2 µM
same,GI50,[27],0.304 µM
same,TGI,[27],1.71 µM
same,GI50,[28],0.0999 µM
same,TGI,[28],> 100 µM
same,GI50,[29],0.715 µM
same,TGI,[29],26 µM
same,GI50,[30],0.224 µM
same,TGI,[30],1.77 µM
same,GI50,[31],0.428 µM
same,TGI,[31],10.8 µM
same,GI50,[32],0.236 µM
same,TGI,[32],1.13 µM
same,GI50,[33],0.329 µM
same,TGI,[33],25.2 µM
same,GI50,[34],0.0743 µM
same,TGI,[34],1.68 µM
same,GI50,[35],0.398 µM
same,TGI,[35],1.84 µM
same,GI50,[36],0.0664 µM
same,TGI,[36],1.15 µM
same,GI50,[37],0.48 µM
same,TGI,[37],28.7 µM
same,GI50,[38],0.138 µM
same,TGI,[38],> 100 µM
same,GI50,[39],0.26 µM
same,TGI,[39],> 100 µM
same,GI50,[40],0.0941 µM
same,TGI,[40],2.29 µM
same,GI50,[41],0.223 µM
same,TGI,[41],2.31 µM
same,GI50,[42],0.616 µM
same,TGI,[42],13.4 µM
same,GI50,[43],0.202 µM
same,TGI,[43],60.9 µM
same,GI50,[44],0.407 µM
same,TGI,[44],13.9 µM
same,GI50,[45],2.71 µM
same,TGI,[45],42.6 µM
same,GI50,[46],1.18 µM
same,TGI,[46],> 100 µM
same,GI50,[47],0.3 µM
same,TGI,[47],2.97 µM
same,GI50,[48],0.733 µM
same,TGI,[48],4.85 µM
same,GI50,[49],0.358 µM
same,GI50,[50],0.602 µM
same,TGI,[50],> 100 µM
same,GI50,[51],1.11 µM
same,TGI,[51],17.5 µM
same,GI50,[52],0.093 µM
same,TGI,[52],13.8 µM
same,GI50,[53],0.139 µM
same,TGI,[53],> 100 µM
same,GI50,[54],0.352 µM
same,TGI,[54],2.01 µM
same,GI50,[55],0.145 µM
same,TGI,[55],1.38 µM
same,GI50,[56],0.184 µM
same,TGI,[56],1.08 µM
same,GI50,[57],0.7 µM
same,TGI,[57],> 100 µM
